Consider eight compounds from ChEMBL document CHEMBL5725872, “Benzofuran compounds for the treatment of hepatitis C” (2018).

This assay can be described thus: HCV Replicon Luciferase Assay: To evaluate compound efficacy, titrated compounds were transferred to sterile 384-well tissue culture treated plates, and the plates were seeded with HCV replicon cells (50 μL at a density of 2.4×10^3 cells/well) in DMEM containing 4% FBS (final DMSO concentration at 0.5%). After 3 days incubation at 37° C., cells were analyzed for Renilla Luciferase activity using the EnduRen substrate (Promega cat #E6485) according to the manufacturer's directions. Briefly, the EnduRen substrate was diluted in DMEM and then added to the plates to a final concentration of 7.5 μM. The plates were incubated for at least 1 h at 37° C. then read on a Viewlux Imager (PerkinElmer) using a luminescence program. The 50% effective concentration (EC50) was calculated using the four-parameter logistic Formula noted above. To assess cytotoxicity of compounds, Cell Titer-Blue (Promega) was added to the EnduRen-containing plates and incubated for at least 4 hrs at 37° C. The fluorescence signal from each well was read using a Viewlux Imager. All CC50 values were calculated using the four-parameter logistic Formula.

SMILES strings stand for the structures.

What is called EC50 is the concentration needed to bring the measured effect to its halfway point. Regarding `CNC(=O)c1c(-c2ccc(F)cc2)oc2cc(N(CCCF)S(C)(=O)=O)c(-c3cccc(C(=O)N[C@H](C)C(F)(F)F)c3)cc12`, where the note is “72 h”, the EC50 is less than 100 nM.
In the case of `CNC(=O)c1c(-c2ccc(F)cc2)oc2cc(N(CCF)S(C)(=O)=O)c(-c3cccc(C(=O)N4CCC[C@H]4CO)c3)cc12`, the EC50 (72 h) is 100 to 1000 nM.
For the compound `CNC(=O)c1c(-c2ccc(F)cc2)oc2cc(N(CCF)S(C)(=O)=O)c(-c3cccc(C(=O)NC(C)(C)C)c3)cc12`, the EC50 is less than 100 nM. For the same compound, the concentration giving a half-maximal response (EC50) (72 h) is less than 100 nM.
For the compound `CC[C@H](NC(=O)c1cccc(-c2cc3c(C(=O)NC)c(-c4ccc(F)cc4)oc3cc2N(CCF)S(C)(=O)=O)c1)C1CC1`, the concentration for a half-maximal effect (EC50) (72 h) is less than 100 nM.
For `CNC(=O)c1c(-c2ccc(F)cc2)oc2cc(N(CCF)S(C)(=O)=O)c(-c3cccc(C(=O)N4CC[C@H](O)C4)c3)cc12`, the EC50 (72 h) is greater than 1000 nM.
On to `CNC(=O)c1c(-c2ccc(F)cc2)oc2cc(N(C(F)F)S(C)(=O)=O)c(-c3cccc(C(=O)O)c3)cc12`, for which the EC50 (72 h) is greater than 10000 nM.
As to `CNC(=O)c1c(-c2ccc(F)cc2)oc2cc(N(CCCF)S(C)(=O)=O)c(-c3cccc(C(=O)N[C@@H](C)C(F)(F)F)c3)cc12`, for the setting “72 h”, the EC50 is less than 100 nM.
Consider `CNC(=O)c1c(-c2ccc(F)cc2)oc2cc(N(CCCF)S(C)(=O)=O)c(-c3cccc(C(=O)NC(C)(C)C)c3)cc12`, for which the EC50 is less than 100 nM. Besides, the EC50 (72 h) was less than 100 nM.
